From patent US6984633B2, “Method to treat cardiofibrosis with a combination therapy of an angiotensin II antagonist and epoxymexrenone” (G.D Searle & Co., priority 1995, dated 2006)

System: rabbit aortic rings
Assay: Assay B: In vitro vascular smooth muscle response for AII, antagonist activity in aortic rings
Format: cell-based
Conditions: for Assay B pA2: two determinations separated by /
Method: Assay B: In Vitro Vascular Smooth Muscle-Response for AII
The compounds of the invention were tested for antagonist activity in rabbit aortic rings. Male New Zealand white rabbits (2-2.5 kg) were sacrificed using an overdose of pentobarbital and exsanguinated via the carotid arteries. The thoracic aorta was removed, cleaned of adherent fat and connective tissue and then cut into 3-mm ring segments. The endothelium was removed from the rings by gently sliding a rolled-up piece of filter paper into the vessel lumen. The rings were then mounted in a water-jacketed tissue bath, maintained at 37° C., between moveable and fixed ends of a stainless steel wire with the moveable end attached to an FT03 Grass transducer coupled to a Model 7D Grass Polygraph for recording isometric force responses. The bath was filled with 20 ml of oxygenated (95% oxygen/5% carbon dioxide) Krebs solution of the following composition (mM); 130 NaCl, 15 NaHCO3, […], 1.2 NaH2PO4, 1.2 MgSO4, 2.5 CaCl2, and 11.4 glucose. The preparations were equilibrated for one hour before approximately one gram of passive tension was placed on the rings. Angiotensin II concentration-response curves were then recorded (3×10^−10 to 1×10^−5 M). Each concentration of AII was allowed to elicit its maximal contraction, and then AII was washed out repeatedly for 30 minutes before rechallenging with a higher concentration of AII. Aorta rings were exposed to the test antagonist at 10^−5 M for 5 minutes before challenging with AII. Adjacent segments of the same aorta ring were used for all concentration-response curves in the presence of absence of the test antagonist. The effectiveness of the test compound was expressed in terms of pA2 values and were calculated according to H. O. Schild [Br. J. Pharmacol. Chemother., 2, 189-206 (1947)]. The pA2 value is the concentration of the antagonist which increases the EC50 value for AII by a factor of two. Each test antagonist was evaluated in aorta rings from two rabbits.

Row | SMILES | Assay B pA2 | Assay B pA2 column, result given as symbol
1 | CCCCc1nc(C(=O)O)nn1Cc1ccc(-c2ccccc2-c2nnn[nH]2)cc1 [Compound 52] | 8.12 | –
2 | CCCCc1nc(CN)n(Cc2ccc(-c3ccccc3-c3nnn[nH]3)cc2)n1 [Compound 36] | 5.68 | –
3 | CCCCc1nc(CCc2ccccc2)n(Cc2ccc(-c3ccccc3-c3nnn[nH]3)cc2)n1 [Compound 25] | 6.73 | –
4 | CCCCc1nc(C(F)F)nn1Cc1ccc(-c2ccccc2-c2nnn[nH]2)cc1 [Compound 47] | 7.58 | –
5 | CCCCn1nc(C(F)(F)CCC)nc1Cc1ccc(-c2ccccc2-c2nnn[nH]2)cc1 [Compound 130] | 7.94 | –
6 | CCCCc1ncnn1Cc1ccc(-c2ccccc2-c2nnn[nH]2)cc1 [Compound 53] | 7.83 | –
7 | CCCCc1nc(CNC(=O)CCC(NC(C)=O)C(=O)OC(C)(C)C)nn1Cc1ccc(-c2ccccc2-c2nnn[nH]2)cc1 (centres unmarked) [Compound 41] | 5.96 | –
8 | CCCCc1nc(CCC(C)C)n(Cc2ccc(-c3ccccc3-c3nnn[nH]3)cc2)n1 [Compound 16] | 9.24 | –
9 | CCCCn1nc(C(=O)NC)nc1Cc1ccc(-c2ccccc2-c2nnn[nH]2)nc1 [Compound 172] | 7.04 | –
10 | CCCCc1nc(CCC)n(Cc2ccc(-c3ccccc3-c3nnn[nH]3)cc2)n1 [Compound 15] | 8.30 | –
11 | CCCCc1nc(CCCO)n(Cc2ccc(-c3ccccc3-c3nnn[nH]3)cc2)n1 [Compound 46] | 6.64 | –
12 | CCCCn1nc(C(OC(C)C)OC(C)C)nc1Cc1ccc(-c2ccccc2-c2nnn[nH]2)nc1 [Compound 178] | 7.47 | –
13 | CCCCc1nc(CCCC)n(Cc2ccc(-c3ccccc3-c3nnn[nH]3)cn2)n1 [Compound 239] | 8.01 | –
14 | CCCCc1nc(C2CCCCC2)n(Cc2ccc(-c3ccccc3-c3nnn[nH]3)cc2)n1 [Compound 65] | 7.75 | –
15 | CCCCc1nc(CC23CC4CC(CC(C4)C2)C3)nn1Cc1ccc(-c2ccccc2-c2nnn[nH]2)cc1 [Compound 62] | 8.61 | –
16 | CCCCc1nc(CCC(C)C)nn1Cc1ccc(-c2ccccc2-c2nnn[nH]2)cc1 [Compound 17] | 8.40 | –
17 | CCCCc1nc(C(=O)NC)nn1Cc1ccc(-c2ccccc2-c2nnn[nH]2)nc1 [Compound 257] | 6.68 | –
18 | CCCCc1nc(C(OC)OC)nn1Cc1ccc(-c2ccccc2-c2nnn[nH]2)cc1 [Compound 24] | 7.73 | –
19 | CCCCn1nc(/C=C/c2cccs2)nc1Cc1ccc(-c2ccccc2-c2nnn[nH]2)nc1 [Compound 154] | 8.38 | –
20 | CCCn1nc(C(F)(F)CC)nc1Cc1ccc(-c2ccccc2-c2nnn[nH]2)nc1 [Compound 167] | 7.11 | –
21 | CCCCn1nc(-c2ccccc2Cl)nc1Cc1ccc(-c2ccccc2-c2nnn[nH]2)nc1 [Compound 158] | 8.14 | –
22 | CCCCc1nc(CCCNC(=O)OC(C)(C)C)n(Cc2ccc(-c3ccccc3-c3nnn[nH]3)cc2)n1 [Compound 67] | 5.78 | –

Row | SMILES | Assay B pA2 | Assay B pA2 column, result given as symbol
23 | CCCn1nc(C(F)(F)CCC)nc1Cc1ccc(-c2ccccc2-c2nnn[nH]2)nc1 [Compound 169] | 7.58 | –
24 | CCCCc1nc(Cc2ccc(-c3ccccc3-c3nnn[nH]3)nc2)n(CCCC)n1 [Compound 150] | 7.80 | –
25 | CCCCCc1nc(CCCCC)n(Cc2ccc(-c3ccccc3-c3nnn[nH]3)cc2)n1 [Compound 13] | 8.85 | –
26 | CCCCn1nc(CCc2ccccc2)nc1Cc1ccc(-c2ccccc2-c2nnn[nH]2)nc1 [Compound 151] | 7.97 | –
27 | CCCCc1nc(CCCN)nn1Cc1ccc(-c2ccccc2-c2nnn[nH]2)cc1 [Compound 72] | 6.10 | –
28 | CCCCc1nc(CC)nn1Cc1ccc(-c2ccccc2-c2nnn[nH]2)cc1 [Compound 39] | 7.84 | –
29 | CCCCc1nc(C(=O)Cc2ccccc2)nn1Cc1ccc(-c2ccccc2-c2nnn[nH]2)cc1 [Compound 50] | 7.89 | –
30 | CCCc1nc(CCC)n(Cc2ccc(-c3ccccc3-c3nnn[nH]3)nc2)n1 [Compound 246] | 7.59 | –
31 | CCCCc1nc(C(=O)CCC)nn1Cc1ccc(-c2ccccc2-c2nnn[nH]2)cc1 [Compound 30] | 7.88 | –
32 | CCCCc1nc(C(F)(F)CCC)nn1Cc1ccc(-c2ccccc2-c2nnn[nH]2)nc1 [Compound 247] | 8.41 | –
33 | CCCCc1nc(CC(OCC)OCC)n(Cc2ccc(-c3ccccc3-c3nnn[nH]3)cc2)n1 [Compound 37] | 6.85 | –
34 | CCCCc1nc(Cc2ccc(-c3ccccc3-c3nnn[nH]3)cc2)n(CCCC)n1 [Compound 128] | 8.40 | –
35 | CCCCc1nc(C)nn1Cc1ccc(-c2ccccc2C(=O)O)cc1 [Compound 280] | 6.35 | –
36 | CCCn1nc(C(C)(F)F)nc1Cc1ccc(-c2ccccc2-c2nnn[nH]2)nc1 [Compound 165] | 7.18 | –
37 | CCCCc1ncnn1Cc1ccc(-c2ccccc2C(=O)O)cc1 [Compound 18] | 6.09 | –
38 | CCCCc1nc(CCC(=O)O)n(Cc2ccc(-c3ccccc3-c3nnn[nH]3)cc2)n1 [Compound 64] | 6.77 | –
39 | CCCCc1nc2c(OC(=O)Cc3ccccc3)nnc(O)c2n1Cc1ccc(-c2ccccc2-c2nnn[nH]2)cc1 [Compound 124] | 9.12 | –
40 | CCCCc1nc(CCC)nn1Cc1ccc(-c2ccccc2-c2nnn[nH]2)cc1 [Compound 14] | 8.71 | –
41 | CCCCc1nc(CCCO)nn1Cc1ccc(-c2ccccc2-c2nnn[nH]2)cc1 [Compound 45] | 8.24 | –
42 | CCCCn1nc(C(C)(F)F)nc1Cc1ccc(-c2ccccc2-c2nnn[nH]2)nc1 [Compound 166] | 7.74 | –
43 | CCCCc1nc2c(OC(=O)C3CCCCC3)nnc(O)c2n1Cc1ccc(-c2ccccc2-c2nnn[nH]2)cc1 [Compound 120] | 8.77 | –
44 | CCCCc1nc(Cc2ccc(-c3ccccc3C(=O)O)cc2)n(CCCC)n1 [Compound 126] | 7.05 | –

Row | SMILES | Assay B pA2 | Assay B pA2 column, result given as symbol
45 | CCCCc1nc(CC)n(Cc2ccc(-c3ccccc3C(=O)O)cc2)n1 [Compound 76] | 5.78 | –
46 | CCCCc1nc(CC2CCCCC2)nn1Cc1ccc(-c2ccccc2-c2nnn[nH]2)cc1 [Compound 74] | 8.39 | –
47 | CCCCc1nc(CCCC2CCCCC2)nn1Cc1ccc(-c2ccccc2-c2nnn[nH]2)cc1 [Compound 58] | 6.57 | –
48 | CCCCc1nc(CCc2ccccc2)nn1Cc1ccc(-c2ccccc2-c2nnn[nH]2)cc1 [Compound 26] | 9.66 | –
49 | CCCCc1nc(C(F)(F)Cc2ccccc2)nn1Cc1ccc(-c2ccccc2-c2nnn[nH]2)cc1 [Compound 51] | 8.51 | –
50 | CCCCc1nc(CNC(=O)OC(C)(C)C)nn1Cc1ccc(-c2ccccc2-c2nnn[nH]2)cc1 [Compound 35] | 7.47 | –
51 | CCCCc1ncn(Cc2ccc(-c3ccccc3C(=O)O)cc2)n1 [Compound 19] | 5.35 | –
52 | CCCCn1nc(C(F)(F)CC)nc1Cc1ccc(-c2ccccc2-c2nnn[nH]2)nc1 [Compound 168] | 7.58 | –
53 | CCCn1nc(C(OC)OC)nc1Cc1ccc(-c2ccccc2-c2nnn[nH]2)nc1 [Compound 174] | 7.02 | –
54 | CCCCn1nc(CCC)nc1Cc1ccc(-c2ccccc2-c2nnn[nH]2)nc1 [Compound 152] | 7.23 | –
55 | CCCCn1nc(C(=O)CCC)nc1Cc1ccc(-c2ccccc2-c2nnn[nH]2)nc1 [Compound 160] | 7.71 | –
56 | CCCCc1nc(CCC(=O)O)nn1Cc1ccc(-c2ccccc2-c2nnn[nH]2)cc1 [Compound 63] | 7.67 | –
57 | CCCCn1nc(C(OCC)OCC)nc1Cc1ccc(-c2ccccc2-c2nnn[nH]2)nc1 [Compound 176] | 7.55 | –
58 | CCCCc1nc(C(=O)N(C)C(C)(C)C)nn1Cc1ccc(-c2ccccc2-c2nnn[nH]2)nc1 [Compound 255] | 7.46 | –
59 | CCCc1nc(CCC)n(Cc2ccc(-c3ccccc3-c3nnn[nH]3)cc2)n1 [Compound 12] | 8.59 | –
60 | CCCCc1nc2c(OC(=O)C(C)C)nnc(O)c2n1Cc1ccc(-c2ccccc2-c2nnn[nH]2)cc1 [Compound 119] | 9.00 | –
61 | CCCCc1nc(CC2CCCCC2)n(Cc2ccc(-c3ccccc3-c3nnn[nH]3)cc2)n1 [Compound 73] | 7.46 | –
62 | CCCCc1nc(-c2ccccc2)n(Cc2ccc(-c3ccccc3-c3nnn[nH]3)cc2)n1 [Compound 22] | 6.46 | –
63 | CCCCc1nc(CCCN)n(Cc2ccc(-c3ccccc3-c3nnn[nH]3)cc2)n1 [Compound 71] | – | * (Antagonist Activity not observed up to 10 μM of test compound.)
64 | CCCCc1nc(CCC2CCCCC2)n(Cc2ccc(-c3ccccc3-c3nnn[nH]3)cc2)n1 [Compound 42] | 6.26 | –
65 | CCCCc1nc(C(F)(F)CCC)n(Cc2ccc(-c3ccccc3-c3nnn[nH]3)nc2)n1 [Compound 248] | 7.50 | –
